Assay results published in patent publication US11535585B2, “Nitrobenzyl derivatives of anti-cancer agents” (OBI PHARMA, INC., priority 2015, dated 2022).
Where two headings read alike, the source gives them in different places.

Legend:
[1] = tested as water soluble phosphate prodrug PR 104P; cited from earlier work
AKR1C3 = biological target: T1, AKR1C3 (Homo sapiens, UniProt P42330); conditions: cited from earlier work
T1 sequence (P42330 1-323): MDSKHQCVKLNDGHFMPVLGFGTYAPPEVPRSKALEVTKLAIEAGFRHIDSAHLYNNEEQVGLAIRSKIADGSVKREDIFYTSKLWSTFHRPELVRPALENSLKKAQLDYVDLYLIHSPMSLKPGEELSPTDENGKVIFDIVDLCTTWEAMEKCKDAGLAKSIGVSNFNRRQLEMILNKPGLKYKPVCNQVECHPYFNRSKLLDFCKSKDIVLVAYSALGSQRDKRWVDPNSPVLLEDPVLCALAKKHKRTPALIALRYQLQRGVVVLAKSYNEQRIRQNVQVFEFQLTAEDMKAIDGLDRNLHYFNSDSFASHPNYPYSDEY

[2] = tested on: H460 non cell lung cancer human tumor cell line; assay: In vitro human tumor cell line cytotoxicity / proliferation assay (AlamarBlue) with and without AKR1C3 inhibitor; type: cell-based
Protocol: In vitro proliferation data on the H460 […] human tumor cell line is determined based on IC50 measured by exposure of compounds at various concentrations for 2 hrs followed by a wash step and addition of fresh media followed by growth and cell viability staining and comparison to a media only treated control.
Specifically, exponentially growing cells are seeded at a density of 4×10^3 cells per well in a 96 well plate and incubated at 37° C. in 5% CO2, 95% air and 100% relative humidity for 24 hours prior to addition of test compounds. Compounds are solubilized in 100% DMSO at 200 times the desired final test concentration. At the time of drug addition, compounds are further diluted to 4 times the desired final concentration with complete medium. Aliquots of 50 μl of compound at specified concentrations are added to microtiter wells already containing 150 μl of medium, resulting in the final drug concentration reported. After drug addition the plates are incubated 72 hrs at 37° C., 5% CO2, 95% air and 100% relative humidity. At the end of this incubation, the viable cells are quantified using the AlamarBlue assay. The drug concentration resulting in growth inhibition of 50% (IC50) is calculated using Prism software (Irvine, Calif.).
Cell proliferation were performed in the presence (3 micromolar) and absence of a specific inhibitor of the AKR 1C3 enzyme. The case of added inhibitor was added to cell culture 2 hours prior to compound treatment. The inhibitor used was compound 36 in Flanagan, et al, Bioorganic and Medicinal Chemistry (2014) p 962-977.
Proliferation data of TH compounds in H460 in the presence/absence of the specific AKR 1C3 inhibitor

[3] = NCI-H460, H460 cells, absence of specific AKR 1C3 inhibitor, read-out: IC50 (without inhibitor)
[4] = NCI-H460, H460 cells, presence of 3 micromolar specific AKR 1C3 inhibitor added 2 hours prior to compound treatment, read-out: IC50 (with inhibitor)

| Compound | efficacy in clinical trials [1] | substrate for AKR1C3 (AKR1C3) | IC50 [2, 3] | IC50 [2, 4] | IC50 ([2]; NCI-H460, read-out: IC50 (without inhibitor)) |
| --- | --- | --- | --- | --- | --- |
| CS(=O)(=O)OCCN(CCBr)c1c(C(=O)NCCO)cc([N+](=O)[O-])cc1[N+](=O)[O-] [PR 104] | ineffective | weak substrate |  |  |  |
| CC(=O)O[C@H]1C(=O)[C@@]2(C)[C@H]([C@H](OC(=O)c3ccccc3)[C@]3(O)C[C@H](OC(=O)[C@H](OC(=O)N(C)CCN(C)C(=O)OCc4ccc([N+](=O)[O-])c(Oc5ccc6ncccc6c5)c4)[C@@H](NC(=O)c4ccccc4)c4ccccc4)C(C)=C1C3(C)C)[C@]1(OC(C)=O)CO[C@@H]1C[C@@H]2O [TH3047] |  |  | 30 nM | 30000 nM |  |
| CC(=O)O[C@H]1C(=O)[C@@]2(C)[C@H]([C@H](OC(=O)c3ccccc3)[C@]3(O)C[C@H](OC(=O)[C@H](OC(=O)N(C)CCN(C)C(=O)OC(C)c4ccc([N+](=O)[O-])c(Oc5ccc6ncccc6c5)c4)[C@@H](NC(=O)c4ccccc4)c4ccccc4)C(C)=C1C3(C)C)[C@]1(OC(C)=O)CO[C@@H]1C[C@@H]2O (stereo partly shown) [TH3054] |  |  | 30 nM | 91000 nM |  |
| CCN(CCCCBr)P(=O)(OCc1ccc([N+](=O)[O-])c(Oc2ccc(-c3ccccc3)cc2)c1)OCC1OC(n2ccc(N)nc2=O)C(F)(F)C1O (stereo not shown) [TH3057] |  |  |  |  | 200 nM |
